# Experimental data taken from patent EP1397353B1, “2-(2,6-DISUBSTITUTED PHENYL)-4-ARYL-5-ALKYL-1,3-OXAZOLINE COMPOUNDS USEFUL AS INSECTICIDES AND ACARICIDES” (Dow AgroSciences LLC, priority 2001, dated 2003).
# What was measured:
# Assay type in all cases: in vivo
# [1] = test system: two-spotted spider mite (Tetranychus urticae); assay: Insecticidal test for two-spotted spider mite, ovicide method; details: for pest or weed control: Tetranychus urticae, read-out: SM, activity against two-spotted spider mite
# Protocol: Insecticidal test for two-spotted spider mite (Tetranychus urticae)
# Ten adult female two-spotted spider mites were placed on eight 2.2 cm leaf discs of cotton leaf, allowed to oviposit over 24 hours, and thereafter removed. […] Discs were placed on an agar substrate and held at 24 °C and 90% RH for 6 days.
# [2] = test system: Sweetpotato Whitefly (Bemisia tabacia); assay: Insecticidal test for sweetpotato whitefly (spray on cotton plants); details: 200 ppm spray, large nymphs counted after 13 days, rating of % Control; for pest or weed control at 200 ppm: Bemisia, 312 h, read-out: WF, activity at 200 ppm against whitefly
# Protocol: Insecticidal test for Sweetpotato Whitefly (Bemisia tabacia)
# Four mg of each test compound were dissolved by adding 4 mL of a 90:10 acetone:ethanol solvent mixture to the vial containing the sample compound. This solution was added to 16 mL of water containing 0.05% Tween 20 surfactant to produce 20 mL of a 200 ppm spray solution.
# Five-week-old cotton plants reared in a greenhouse were stripped of all foliage except for the two uppermost true leaves that were greater than 5 cm in diameter. These plants were then placed into a laboratory colony of whiteflies for two days for oviposition by the colony females. All whiteflies were then removed from the test plants with pressurized air. The spray solution was then applied to the test plants with a hand-held syringe fitted with hollow cone nozzle. One mL spray solution was applied to each leaf top and bottom for a total of 4 mL per plant. Four replications of each test compound utilized a total of 16 mL spray solution. Plants were air dried and then placed in a holding chamber (28 °C and 60% RH) for 13 days. Compound efficacy was evaluated by counting, under an illuminated magnifying glass, the number of large nymphs (3rd-4th instar) per leaf
# Percent control based on reduction of large nymphs of a test compound compared to solution-only (no test compound) sprayed plants is reported in Table 1-8.
# [3] = test system: cabbage looper (Trichoplusia ni); assay: Insecticidal test for cabbage looper (leaf-dip, cabbage leaf discs); details: dipped cabbage leaf discs, 2nd instar larvae, 5 days, rating of % Control; for pest or weed control at 400 ppm: Trichoplusia ni, foliar, 120 h, read-out: CL, activity at 400 ppm against cabbage looper
# Protocol: (§1) Insecticidal test for tobacco budworm (Heliothis virescens), beet armyworm (Spodoptera exigua), and cabbage looper (Trichoplusia ni).
# (§2) To prepare test solution, the test compound was formulated at 400 ppm in 7.5 mL of 2 acetone: 1 tap water. 250 µL of the test solution was pipetted upon the surface of 8 mL of lepidopteran diet (modified Shorey) contained in each of five one-ounce plastic cups (one cup = 1 replication). […] After airdrying, the treated leaf discs were placed individually into one-ounce plastic cups. Each dried, treated cotton cotyledon disc was infested with a 2nd instar tobacco budworm larva, and each cabbage leaf disc was infested with a 2nd instar cabbage looper larva. Cups containing the treated substrates and larvae were capped and then held in a growth chamber at 25 °C, 50-55% RH, and 14 hr light: 10 hr dark for 5 days.
# [4] = test system: cotton aphid (Aphis gossypii); assay: Insecticidal test for cotton aphid (spray on infested squash cotyledons); details: 50 ppm spray, all life stages, 3 days, rating of % Control
# Protocol: Insecticidal test for cotton aphid (Aphis gossypii)
# To prepare spray solutions, 1 mg of each test compound was dissolved into 1 mL of a 90:10 acetone:ethanol solvent. This 1 mL of chemical solution was added to 19 mL of water containing 0.05% Tween 20 surfactant to produce a 50 ppm spray solution.
# Squash cotyledons were infested with cotton aphid (all life stages)16-20 hours prior to application of spray solution. The solution was sprayed on both sides of each infested squash cotyledon (0.5 mL x 2 each side) with a sweeping action until runoff. The plants were allowed to air dry and held for 3 days in a controlled room at 26 °C and 40% RH after which time the test was graded. Grading was by actual count using a dissecting microscope and comparison of test counts to the untreated check.
# [5] = test system: beet armyworm (Spodoptera exigua); assay: Insecticidal test for beet armyworm (treated lepidopteran diet); details: 2nd instar larvae, 5 days, rating of % Control; for pest or weed control at 400 ppm: Spodoptera exigua, 120 h, read-out: BAW, activity at 400 ppm against beet armyworm
# Protocol: as §1, §2
# [6] = test system: tobacco budworm (Heliothis virescens); assay: Insecticidal test for tobacco budworm (leaf-dip, cotton cotyledon discs); details: dipped cotton cotyledon discs, 2nd instar larvae, 5 days, rating of % Control; for pest or weed control at 400 ppm: Heliothis virescens, 120 h, read-out: TBW, activity at 400 ppm against tobacco budworm
# Protocol: as §1, §2
# [7] = foliar, 144 h, ovicide method, cotton leaf discs, 6 days, rating of % Control
# [8] = ovicide method, cotton leaf discs, 6 days, rating of % Control
structure (smiles),measurement,setting,value
"Cc1cc(Br)ccc1[C@H]1N=C(c2c(F)cccc2F)O[C@H]1C (mixture of isomers) [Compound 38, (4R,5S)- and (4S,5R)-4-(4-bromo-2-methylphenyl)-2-(2,6-difluorophenyl)-5-methyl-4,5-dihydro-1,3-oxazole]",pest or weed control,[1]; [7],60 to 69%
same,pest or weed control at 200 ppm,[2],< 50%
"C[C@H]1OC(c2c(F)cccc2F)=N[C@@H]1c1ccc(I)cc1 (mixture of isomers) [Compound 22, (4R, 5R)- and (4S,5S)-4-(4-iodophenyl)-2-(2,6-difluorophenyl)-5-methyl-4,5-dihydro-1,3-oxazole]",pest or weed control,[1]; [7],90 to 100%
same,pest or weed control at 400 ppm,[3],< 50%
same,"CA, activity at 50 ppm against cotton aphid",[4],A (90-100)
same,pest or weed control at 400 ppm,[5],90 to 100%
"C[C@@H]1OC(c2c(F)cccc2F)=N[C@H]1c1ccc(-c2ccc(C(F)(F)F)cc2)cc1 (mixture of isomers) [Compound 26, (4S,5S)- and (4R,5R)-2-(2,6-difluorophenyl)-5-methyl-4-[4'-(trifluoromethyl)-1,1'-biphenyl-4-yl]-4,5-dihydro-1,3-oxazole]",pest or weed control,[1]; [7],90 to 100%
same,pest or weed control at 400 ppm,[3],90 to 100%
same,pest or weed control at 400 ppm,[6],90 to 100%
same,pest or weed control at 400 ppm,[5],90 to 100%
"C[C@@H]1OC(c2c(F)cccc2F)=N[C@H]1c1ccc(-c2cccc(C(F)(F)F)c2)cc1 (mixture of isomers) [Compound 28, (4S,5S)- and (4R,5R)-2-(2,6-difluorophenyl)-5-methyl-4-[3'-(trifluoromethyl)-1,1'-biphenyl-4-yl]-4,5-dihydro-1,3-oxazole]",pest or weed control,[1]; [7],90 to 100%
same,pest or weed control at 400 ppm,[3],90 to 100%
same,pest or weed control at 400 ppm,[6],90 to 100%
same,pest or weed control at 400 ppm,[5],90 to 100%
"C[C@@H]1OC(c2c(F)cccc2F)=N[C@@H]1c1ccc(I)cc1 (racemic) [Compound 1, (4R,5S)- and (4S,5R)-4-(4-iodorphenyl)-2-(2,6-difluorophenyl)-5-methyl-4,5-dihydro-1,3-oxazole]","SM, activity at 2.5 ppm against two-spotted spider mite","[1]; foliar, 144 h",A (90-100)
same,"CA, activity at 50 ppm against cotton aphid",[4],A (90-100)
"C[C@@H]1OC(c2c(F)cccc2F)=N[C@H]1c1ccc(-c2ccc(F)cc2)cc1 (mixture of isomers) [Compound 25, (4S,5S)- and (4R,5R)-2-(2,6-difluorophenyl)-4-(4'-fluoro-1,1'-biphenyl-4-yl)-5-methyl-4,5-dihydro-1,3-oxazole]",pest or weed control,[1]; [7],90 to 100%
same,pest or weed control at 400 ppm,[3],90 to 100%
same,pest or weed control at 400 ppm,[6],90 to 100%
same,pest or weed control at 400 ppm,[5],90 to 100%
"C[C@@H]1OC(c2c(F)cccc2F)=N[C@H]1c1ccc(Br)cc1 [Compound 46, (4S,5S)-4-(4-bromophenyl)-2-(2,6-difluorophenyl)-5-methyl-4,5 dihydro-1,3-oxazole]",pest or weed control,[1]; [7],90 to 100%
same,"CA, activity at 50 ppm against cotton aphid",[4],A (90-100)
"Cc1cc(-c2ccc(C(F)(F)F)cc2)ccc1[C@@H]1N=C(c2c(F)cccc2F)O[C@H]1C (mixture of isomers) [Compound 43, (4S,5S) - and (4R,5R)-2-(2,6-difluorophenyl)-5-methyl-4-[3-methyl-4'-(trifluoromethyl)-1,1'-biphenyl-4-yl]-4,5-dihydro-1,3-oxazole]",pest or weed control at 400 ppm,[3],90 to 100%
same,pest or weed control at 400 ppm,[6],90 to 100%
same,pest or weed control at 400 ppm,[5],90 to 100%
same,pest or weed control at 200 ppm,[2],< 50%
"C[C@@H]1OC(c2c(F)cccc2Cl)=N[C@@H]1c1ccc(-c2ccc(C(F)(F)F)cc2)cc1 (mixture of isomers) [Compound 4, (4R,5S)- and (4S,5R)-2-(2-chloro-6-fluorophenyl)-5-methyl-4-[4'-(trifluoromethyl)-1,1'-biphenyl-4-yl]-4,5-dihydro-1,3-oxazole]",pest or weed control,[1]; [7],90 to 100%
same,pest or weed control at 400 ppm,[3],90 to 100%
same,"CA, activity at 50 ppm against cotton aphid",[4],A (90-100)
same,pest or weed control at 400 ppm,[6],90 to 100%
same,pest or weed control at 400 ppm,[5],90 to 100%
"C[C@@H]1OC(c2c(F)cccc2F)=N[C@@H]1c1ccc(-c2ccc(OC(F)(F)F)cc2)cc1 (stereo in doubt) [Compound 51, (4R,5S)-2-(2,6-difluorophenyl)-5-methyl-4-[4'-(trifluoromethoxy)-1,1'-biphenyl-4-yl]-4,5-dihydro-1,3-oxazole]",pest or weed control,[1]; [7],90 to 100%
same,pest or weed control at 400 ppm,[3],90 to 100%
same,"CA, activity at 50 ppm against cotton aphid",[4],F (less than 50)
same,pest or weed control at 400 ppm,[6],80 to 89%
same,pest or weed control at 400 ppm,[5],90 to 100%
"C[C@H]1OC(c2c(F)cccc2F)=N[C@H]1c1ccc(-c2ccc(OC(F)(F)F)cc2)cc1 (stereo in doubt) [Compound 49, (4S,5R)-2-(2,6-difluorophenyl)-5-methyl-4-[4'-(trifluoromethoxy)-1,1'-biphenyl-4-yl]-4,5-dihydro-1,3-oxazole]","SM, activity at 2.5 ppm against two-spotted spider mite",[1]; [8],A (90-100)
same,"CL, activity at 400 ppm against cabbage looper",[3],A (90-100)
same,"BAW, activity at 400 ppm against beet armyworm",[5],A (90-100)
same,"WF, activity at 200 ppm against whitefly",[2],B (80-89)
"C[C@H]1OC(c2c(F)cccc2F)=N[C@@H]1c1ccc(Br)cc1 (mixture of isomers) [Compound 24, (4R,5R)- and (4S,5S)-4-(4-bromophenyl)-2-(2,6-difluorophenyl)-5-methyl-4,5-dihydro-1,3-oxazole]",pest or weed control,[1]; [7],90 to 100%
same,pest or weed control at 400 ppm,[3],< 50%
same,"CA, activity at 50 ppm against cotton aphid",[4],A (90-100)
same,pest or weed control at 400 ppm,[6],< 50%
"C[C@H]1OC(c2c(F)cccc2F)=N[C@@H]1c1ccc(-c2ccc(OC(F)(F)F)cc2)cc1 [Compound 53, (4R,5R)-2-(2,6-difluorophenyl)-5-methyl-4-[4'-(trifluoromethoxy)-1,1'-biphenyl-4-yl]-4,5-dihydro-1,3-oxazole]","SM, activity at 2.5 ppm against two-spotted spider mite",[1]; [8],A (90-100)
same,"CL, activity at 400 ppm against cabbage looper",[3],A (90-100)
same,"CA, activity at 50 ppm against cotton aphid",[4],F (less than 50)
same,"TBW, activity at 400 ppm against tobacco budworm",[6],B (80-89)
same,"BAW, activity at 400 ppm against beet armyworm",[5],A (90-100)
"CCOc1ccc(-c2ccc([C@@H]3N=C(c4c(F)cccc4F)O[C@H]3C)c(C)c2)cc1 (mixture of isomers) [Compound 45, (4S,5S)- and (4R,5R)-2-(2,6-difluorophenyl)-4-(4'-ethoxy-3-methyl-1,1'-biphenyl-4-yl)-5-methyl-4,5-dihydro-1,3-oxazole]",pest or weed control,[1]; [7],< 50%
same,pest or weed control at 400 ppm,[3],90 to 100%
same,pest or weed control at 400 ppm,[6],90 to 100%
same,pest or weed control at 400 ppm,[5],90 to 100%
"CCOc1ccc(-c2ccc([C@H]3N=C(c4c(F)cccc4F)O[C@H]3C)c(C)c2)cc1 (mixture of isomers) [Compound 41, (4R,5S)- and (4S,5R)-2-(2,6-difluorophenyl)-4-(4'-ethoxy-3-methyl-1,1'-biphenyl-4-yl)-5-methyl-4,5-dihydro-1,3-oxazole]",pest or weed control,[1]; [7],60 to 69%
same,pest or weed control at 400 ppm,[3],90 to 100%
same,pest or weed control at 400 ppm,[6],90 to 100%
same,pest or weed control at 400 ppm,[5],90 to 100%
"C[C@H]1OC(c2c(F)cccc2F)=N[C@@H]1c1ccc(-c2ccc(OC(F)(F)F)cc2)cc1 (mixture of isomers) [Compound 27, (4R,5R)- and (4S,5S)-2-(2,6-difluorophenyl)-4-(4'-trifluoromethoxy-1,1'-biphenyl-4-yl)-5-methyl-4,5-dihydro-1,3-oxazole]",pest or weed control,[1]; [7],90 to 100%
same,pest or weed control at 400 ppm,[3],90 to 100%
same,"CA, activity at 50 ppm against cotton aphid",[4],E (50-59)
same,pest or weed control at 400 ppm,[6],80 to 89%
same,pest or weed control at 400 ppm,[5],90 to 100%
